Assay results published in EP0773287A1, “Immortalised embryonic hyppocampal cells and their use” (BAYER AG, priority 1995, dated 1997).

Assays:
Type in all cases: cell-based, murine
[1] = tested on: metabotropic glutamate receptor(s) (mGluR) expressed by HNMMCV14.1A cells; assay: Phosphoinositide hydrolysis: accumulation of 3H-inositol phosphates; conditions: HNMMCV14.1A cells; agonist 1 h, LiCl 10 mM; read-out: EC50 inositolphosphate accumulation
Description: Phosphoinositide hydrolysis was determined by measuring the accumulation of ^3H-inositol phosphates. The cells were plated in 48-well plates (Costar) at a density of 10000 cells per well and incubated for 4-5 days at 37°C, 7% CO2. Then the cells were labeled by incubation with 4 µCi of myo-2-^3H-inositol per ml medium (specific activity: […]: Amersham). After 24 h LiCl (10 mM final concentration) was added to the cells for 1 h. Agonists were then added at the concentrations indicated. The incubation was stopped after 1 h by replacing the medium with 200 µl ice-cold methanol. 400 µl of destilled water was added and the sample was directly applied to AG-1X8 ion exchange columns (AG-1X8 resin: BioRad). Free inositol and glycerophosphoryl-inositol were washed away with 16 ml destilled water followed by 10 ml 5 mM disodium-tetraborate, 60 mM sodium formate. Total ^3H-inositol phosphates (IP1, IP2, IP3) were eluted with 7 ml of 100 mM formic acid, 1 M ammonium formate. Radioactivity of the eluted ^3H-inositol phosphates was determined by liquid scintillation counting after addition of 13 ml liquid scintillation cocktail (Ultima Gold: Canberra Packard). Measurements were performed in triplicates for each experimental point. Untreated controls were set as 100% and the other values calculated in relation to this.
The columns were prepared as follows: 1 ml pipet tips were filled with one glass bead (Roth) per tip before adding 500 µl AG-1X8 resin. The resin was compressed with air and 270 µl seasand was applied. Until use they were stored at 4°C.

HC e/n XVB cells = assay: Whole-cell patch-clamp recording of ligand-activated currents; conditions: membrane potential clamped to -70mV
Description: (§1) Electrophysiological setup: Membrane currents were measured with the patchclamp technique in the whole-cell recording configuration (Hamill et al. 1981, Pfluegers Arch. 391:85-100). Current signals were amplified with conventional electronics (EPC-9 amplifier, HEKA Elektronik GmbH, Lambrecht, Germany), filtered at 10kHz, and sampled at 5 kHz by an interface connected to an IBM AT-compatible computer system, which also served as a stimulus generator.
(§2) Solutions and electrodes: The standard bathing solution contained (in mM): Nacl 150, KCL 5, MgCl2 1.8, HEPES 5, and glucose 10. In some experiments an equimolar amount of NaCl was replaced by 5mM BaCl2. Recording pipettes had resistances about 5MΩ (Hilgenberg, Malsfeld, Germany). The pipettes contained (in mM): KCL 140, CaCl2 0.5, EGTA 5, MgCl2 2, and HEPES 10. The pH was adjusted to 7.4. In some experiments the pipette solution was designed to minimize the contribution of voltage-activated currents. In this case, investigating the ligand-activated currents, the pipette solution contained (in mM): CsCl 140, EGTA 10, and HEPES 10.
(§3) Ligands were dissolved in the extracellular saline solution and applied via an U-tube application system. To record ligand-induced currents, the membrane potential was clamped to -70mV. For measurements of voltage-activated currents, cells were held at -70mV and every second the membrane was stepped through a 50 msec. de- or hyperpolarising test pulse to a potential between -170 and +20 mV.

HNMMCV13.1.E = assay: as above; conditions: 13.1.E; membrane potential clamped to -70mV
Description: as §1, §2, §3

[2] = tested on: v-myc-expressing lines and clones; assay: Induction of differentiation of immortalised cell lines and clones; conditions: 1mM
Description: For experiments in the presence of growth factors or other differentiation inducing agents, the primary cell cultures or the immortalised cell lines were cultured in the presence of one or a combination of the following: β-FGF, 1ng/ml, (Collaborative Research), EGF; 5 ng/ml or 10 ng/ml, (Collaborative Research), NGF (10 ng/ml, Collaborative Reasearch), dibutyryl cyclic adenosine monophosphate (dbcAMP, 1mM, Sigma, Heidelberg), retinoic acid (5 µM; Sigma), IL-7 (50 U/ml), TGFα (5ng/ml).
To induce differentiation in vitro several combinations of the following factors were used: retinoic acid (RA, 10 µM), NGF, β-FGF, EGF, IL-7, TGFα, dbcAMP (1mM). In addition the effect of co-culture with cortical glial cells originating from postnatal day 0 to 1 and granule neurons originating from postnatal day 6 mice was investigated.

| Structure (SMILES) | EC50 [1] | ligand-activated currents (electrophysiological recordings) (HC e/n XVB cells; XV. B/ - EGF) | ligand-activated currents (electrophysiological recordings) (HC e/n XVB cells; XV. B) | ligand-activated currents (electrophysiological recordings) (HNMMCV13.1.E) | expression of MAP-2 ([2]; cell line HNMMCV11.2.) | differentiation of the cells (morphology, markers vimentin and nestin) ([2]; v-myc-expressing lines and clones) |
| --- | --- | --- | --- | --- | --- | --- |
| N[C@@H](CCC(=O)O)C(=O)O [Glutamate, L-glutamate] | 50 µM | ++ (++: 30-70% positive cells) | - | + (+: 10-30% positive cells) |  |  |
| CCCC(=O)Nc1ncnc2c1ncn2[C@@H]1O[C@@H]2COP(=O)(O)O[C@H]2[C@H]1OC(=O)CCC [dbcAMP, dibutyryl cyclic adenosine monophosphate] |  |  |  |  | induction of the expression of MAP-2 | partial differentiation |
